What was measured:
Cannabinoid receptor 1 [1] = molecular target: T1, Cannabinoid receptor 1 (Homo sapiens, UniProt P21554); test: Agonist activity at human CB1 receptor stably expressed in CHO-RD-HGA16 cells assessed as increase in intracellular calcium mobilization at 10 uM by FLIPR assay relative to CP55940; type: functional, cell-based
[2] = molecular target: Cannabinoid receptor 2 (Homo sapiens) (UniProt P34972); test: Antagonist activity at human CB2 receptor stably expressed in CHO-RD-HGA16 cells assessed as inhibition of CP55940-induced intracellular calcium mobilization at 10 uM by FLIPR assay relative to CP55940; type: functional, cell-based; set-up: scale not given: the % may be the effect or the level left
Cannabinoid receptor 1 [3] = molecular target: T1, Cannabinoid receptor 1; test: Negative allosteric modulation of human CB1 receptor stably expressed in CHO-RD-HGA16 cells assessed as inhibition of CP55940-induced intracellular calcium mobilization incubated for 15 mins by FLIPR assay; type: functional, cell-based
Cannabinoid receptor 1 [4] = molecular target: Cannabinoid receptor 1 (Mus musculus, UniProt P47746); test: Negative allosteric modulation of CD-1 mouse CB1 receptor extracted from cerebellum membrane in presence of [35S]GTP-gammaS; type: cell membranes
Cannabinoid receptor 1 [5] = molecular target: T1, Cannabinoid receptor 1; test: Negative allosteric modulation of human CB1 extracted from HEK293 cell membrane assessed as increase in forskolin-induced cAMP production preincubated for 15 mins followed by forskolin/CP55940 addition by BRET CAMYEL cAMP assay
Cannabinoid receptor 1 [6] = molecular target: T1, Cannabinoid receptor 1; test: Negative allosteric modulation of human CB1 extracted from HEK293 cell membrane assessed as specific binding of [3H]CP55940 incubated for 90 mins; type: cell membranes
[7] = Stability in human liver microsomes assessed as half life at 1 uM preincubated for 10 mis followed by NADPH addition measured for 15 to 60 mins by LC-MS/MS analysis; type: ADME, Microsome; conditions: time 25-70 min
[8] = Stability in human liver microsomes assessed as clearance at 1 uM preincubated for 10 mis followed by NADPH addition measured for 15 to 60 mins by LC-MS/MS analysis; type: ADME, Microsome; conditions: time 25-70 min
[9] = Stability in human hepatocytes assessed as half life at 1 uM measured up to 120 mins by LC/MS/MS analysis; type: ADME, cell-based, Hepatocyte; conditions: 2 h
[10] = Stability in human hepatocytes assessed as clearance at 1 uM measured up to 120 mins by LC/MS/MS analysis; type: ADME, cell-based, Hepatocyte; conditions: 2 h
[11] = Kinetic solubility of compound in PBS incubated for 2 hrs by LC-MS/MS analysis; type: physicochemical; conditions: read-out: Kinetic_solubility
[12] = Apparent permeability across apical to basal side in MDCK-MDR1 cells at 10 uM measured for 30 to 90 mins by LC-MS/MS analysis; type: ADME, cell-based, Canis lupus familiaris; conditions: dog, mdck-mdr1, 10 µM, time 30-90 min
[13] = Apparent permeability across basal to apical side in MDCK-MDR1 cells at 10 uM measured for 30 to 90 mins by LC-MS/MS analysis; type: ADME, cell-based, Canis lupus familiaris; conditions: dog, mdck-mdr1, 10 µM, time 30-90 min
[14] = Protein binding in rat plasma at 1 uM incubated for 6 hrs by LC-MS/MS analysis; type: ADME, cell-free
[15] = Protein binding in rat brain at 1 uM incubated for 6 hrs by LC-MS/MS analysis; type: ADME, tissue-based
[16] = Protein binding in human plasma at 1 uM incubated for 6 hrs by LC-MS/MS analysis; type: ADME, cell-free
[17] = Drug concentration in plasma of Sprague-Dawley rat at 1 mg/kg, iv measured after 5 mins by LC-MS/MS analysis; type: ADME, organism-based
[18] = Drug excretion in Sprague-Dawley rat at 1 mg/kg, iv measured after 4 hrs by LC-MS/MS analysis; type: ADME, organism-based; conditions: in vivo
[19] = Half life in Sprague-Dawley rat at 1 mg/kg, iv measured for 0.08 to 8 hrs by LC-MS/MS analysis; type: ADME, organism-based; conditions: in vivo, time 0.08-8 hrs
[20] = Drug concentration in plasma of Sprague-Dawley rat at 5.6 mg/kg, ip measured after 0.25 hrs by LC-MS/MS analysis; type: ADME, organism-based
[21] = Drug concentration in plasma of Sprague-Dawley rat at 5.6 mg/kg, ip measured after 0.5 hrs by LC-MS/MS analysis; type: ADME, organism-based
[22] = Drug concentration in plasma of Sprague-Dawley rat at 5.6 mg/kg, ip measured after 1 hr by LC-MS/MS analysis; type: ADME, organism-based
[23] = Drug concentration in plasma of Sprague-Dawley rat at 5.6 mg/kg, ip measured after 8 hrs by LC-MS/MS analysis; type: ADME, organism-based
[24] = Drug concentration in brain of Sprague-Dawley rat at 5.6 mg/kg, ip measured after 0.25 hrs by LC-MS/MS analysis; type: ADME, organism-based; conditions: read-out: Ct
[25] = Drug concentration in brain of Sprague-Dawley rat at 5.6 mg/kg, ip measured after 0.5 hrs by LC-MS/MS analysis; type: ADME, organism-based; conditions: read-out: Ct
[26] = Drug concentration in brain of Sprague-Dawley rat at 5.6 mg/kg, ip measured after 1 hr by LC-MS/MS analysis; type: ADME, organism-based; conditions: read-out: Ct
[27] = Drug concentration in brain of Sprague-Dawley rat at 5.6 mg/kg, ip measured after 8 hrs by LC-MS/MS analysis; type: ADME, organism-based; conditions: read-out: Ct
Cannabinoid receptor 1 [28] = molecular target: T1, Cannabinoid receptor 1; test: Negative allosteric modulation of human CB1 receptor extracted from HEK293 cell membrane in presence of [35S]GTP-gammaS; type: cell membranes

Chain of Cannabinoid receptor 1 (Mus musculus, UniProt P47746) (P47746 whole entry): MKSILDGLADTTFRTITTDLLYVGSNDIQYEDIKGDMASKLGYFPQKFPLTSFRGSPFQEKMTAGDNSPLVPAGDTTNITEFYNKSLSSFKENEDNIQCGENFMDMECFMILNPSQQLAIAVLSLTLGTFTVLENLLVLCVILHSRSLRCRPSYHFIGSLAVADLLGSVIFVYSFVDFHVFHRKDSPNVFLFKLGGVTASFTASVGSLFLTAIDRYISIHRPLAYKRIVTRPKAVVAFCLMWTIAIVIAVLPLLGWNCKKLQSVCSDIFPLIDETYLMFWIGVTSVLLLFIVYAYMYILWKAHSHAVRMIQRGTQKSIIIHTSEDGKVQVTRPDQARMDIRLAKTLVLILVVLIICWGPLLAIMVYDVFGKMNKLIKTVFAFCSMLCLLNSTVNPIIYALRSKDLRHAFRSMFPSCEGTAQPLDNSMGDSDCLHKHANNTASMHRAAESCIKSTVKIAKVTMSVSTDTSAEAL
Chain of Cannabinoid receptor 2 (Homo sapiens) (P34972 whole entry): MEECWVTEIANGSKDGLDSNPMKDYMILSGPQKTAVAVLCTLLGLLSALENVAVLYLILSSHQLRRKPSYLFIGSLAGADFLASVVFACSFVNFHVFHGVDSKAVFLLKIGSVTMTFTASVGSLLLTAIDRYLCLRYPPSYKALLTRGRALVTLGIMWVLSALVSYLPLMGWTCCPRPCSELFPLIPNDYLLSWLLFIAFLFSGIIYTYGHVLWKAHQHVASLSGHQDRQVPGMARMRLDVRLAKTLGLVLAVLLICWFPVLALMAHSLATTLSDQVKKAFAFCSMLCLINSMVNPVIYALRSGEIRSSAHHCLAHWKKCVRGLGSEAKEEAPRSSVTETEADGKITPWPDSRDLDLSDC
T1 sequence (P21554 whole entry): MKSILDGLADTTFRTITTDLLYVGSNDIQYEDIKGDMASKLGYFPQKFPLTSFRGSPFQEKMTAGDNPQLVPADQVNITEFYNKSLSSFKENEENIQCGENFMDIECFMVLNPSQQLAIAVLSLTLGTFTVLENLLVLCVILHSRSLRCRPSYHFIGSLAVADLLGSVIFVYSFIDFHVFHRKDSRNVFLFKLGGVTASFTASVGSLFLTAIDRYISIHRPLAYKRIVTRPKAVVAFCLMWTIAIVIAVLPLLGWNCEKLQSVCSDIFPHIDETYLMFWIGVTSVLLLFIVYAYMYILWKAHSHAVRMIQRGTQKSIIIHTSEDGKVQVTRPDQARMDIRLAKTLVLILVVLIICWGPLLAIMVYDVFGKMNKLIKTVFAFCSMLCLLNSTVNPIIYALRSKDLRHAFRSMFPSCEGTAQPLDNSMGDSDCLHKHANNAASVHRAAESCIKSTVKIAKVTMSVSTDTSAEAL

## O=c1c(NCCc2ccc(N3CCCCC3)cc2)c(Nc2ccc(Cl)cc2)c1=O
Cannabinoid receptor 1 [1]
  Activity: < 30%
[2]
  Activity: < 50%

## O=c1c(NCCc2cccc(O)c2)c(Nc2ccc(Cl)cc2)c1=O
Cannabinoid receptor 1 [3]
  IC50: > 10000 nM
Cannabinoid receptor 1 [1]
  Activity: < 30%
[2]
  Activity: < 50%

## CN(C)c1ccc(CCNc2c(Nc3ccc(Cl)cc3)c(=O)c2=O)cc1
Cannabinoid receptor 1 [3]
  IC50: 501 nM
Cannabinoid receptor 1 [1]
  Activity: < 30%
[2]
  Activity: < 50%
Cannabinoid receptor 1 [4]
  IC50: 617 nM

## O=c1c(NCCc2ccc(C(F)(F)F)cc2)c(Nc2ccc(Cl)cc2)c1=O
Cannabinoid receptor 1 [1]
  Activity: < 30%
[2]
  Activity: < 50%

## O=c1c(NCCc2ccc(Cl)cc2Cl)c(Nc2ccc(Cl)cc2)c1=O
[2]
  Activity: < 50%

## O=c1c(NCCc2ccccc2)c(Nc2ccc(Cl)cc2)c1=O
Cannabinoid receptor 1 [3]
  IC50: 204 nM
Cannabinoid receptor 1 [1]
  Activity: < 30%
[2]
  Activity: < 50%

## O=c1c(NCCc2cccs2)c(Nc2ccc(Cl)cc2)c1=O
Cannabinoid receptor 1 [3]
  IC50: 692 nM
Cannabinoid receptor 1 [1]
  Activity: < 30%
[2]
  Activity: < 50%

## Cc1cccc(CCNc2c(Nc3ccc(Cl)cc3)c(=O)c2=O)c1
Cannabinoid receptor 1 [3]
  IC50: 195 nM
Cannabinoid receptor 1 [1]
  Activity: < 30%
[2]
  Activity: < 50%
Cannabinoid receptor 1 [4]
  IC50: 912 nM

## O=C(Nc1ccc(Cl)cc1)Nc1cccc(-c2cccc(N3CCCC3)n2)c1
[2]
  Activity: < 50%

## O=c1c(NCCc2ccccn2)c(Nc2ccc(Cl)cc2)c1=O
Cannabinoid receptor 1 [1]
  Activity: < 30%
[2]
  Activity: < 50%

## COc1cccc(CCNc2c(Nc3ccc(Cl)cc3)c(=O)c2=O)c1
Cannabinoid receptor 1 [1]
  Activity: < 30%
[2]
  Activity: < 50%

## O=c1c(NCCc2ccc(Cl)cc2)c(Nc2ccc(Cl)cc2)c1=O
Cannabinoid receptor 1 [1]
  Activity: < 30%
[2]
  Activity: < 50%

## O=c1c(Nc2ccc(Cl)cc2)c(N2CCN(c3ccc(Cl)cc3)CC2)c1=O
Cannabinoid receptor 1 [3]
  IC50: > 10000 nM
Cannabinoid receptor 1 [1]
  Activity: < 30%
[2]
  Activity: < 50%

## O=c1c(NCCc2ccc(N3CCC3)cc2)c(Nc2ccc(Cl)cc2)c1=O
Cannabinoid receptor 1 [1]
  Activity: < 30%
[2]
  Activity: < 50%

## O=c1c(NCCc2ccncc2)c(Nc2ccc(Cl)cc2)c1=O
Cannabinoid receptor 1 [1]
  Activity: < 30%
[2]
  Activity: < 50%

## Cc1ccc(CCNc2c(Nc3ccc(Cl)cc3)c(=O)c2=O)cc1C
Cannabinoid receptor 1 [3]
  IC50: 427 nM
Cannabinoid receptor 1 [1]
  Activity: < 30%
[2]
  Activity: < 50%

## O=c1c(NCCCc2ccccc2)c(Nc2ccc(Cl)cc2)c1=O
Cannabinoid receptor 1 [3]
  IC50: 871 nM
Cannabinoid receptor 1 [1]
  Activity: < 30%
[2]
  Activity: < 50%

## O=c1c(NCc2ccccc2)c(Nc2ccc(Cl)cc2)c1=O
Cannabinoid receptor 1 [3]
  IC50: > 10000 nM
Cannabinoid receptor 1 [1]
  Activity: < 30%
[2]
  Activity: < 50%

## O=c1c(NCCc2ccccc2Cl)c(Nc2ccc(Cl)cc2)c1=O
Cannabinoid receptor 1 [3]
  IC50: 832 nM
Cannabinoid receptor 1 [1]
  Activity: < 30%
[2]
  Activity: < 50%

## O=c1c(NCCc2ccc(Cl)c(Cl)c2)c(Nc2ccc(Cl)cc2)c1=O
Cannabinoid receptor 1 [1]
  Activity: < 30%
[2]
  Activity: < 50%

## COc1ccccc1CCNc1c(Nc2ccc(Cl)cc2)c(=O)c1=O
Cannabinoid receptor 1 [1]
  Activity: < 30%
[2]
  Activity: < 50%

## CN(C)c1cccc(CCNc2c(Nc3ccc(Cl)cc3)c(=O)c2=O)c1
Cannabinoid receptor 1 [1]
  Activity: < 30%
[2]
  Activity: < 50%

## O=c1c(NCCc2ccccc2C(F)(F)F)c(Nc2ccc(Cl)cc2)c1=O
Cannabinoid receptor 1 [1]
  Activity: < 30%
[2]
  Activity: < 50%

## COc1ccc(CCNc2c(Nc3ccc(Cl)cc3)c(=O)c2=O)cc1
Cannabinoid receptor 1 [3]
  IC50: 525 nM
Cannabinoid receptor 1 [1]
  Activity: < 30%
[2]
  Activity: < 50%

## O=c1c(NCCc2ccc(N3CCCC3)cc2)c(Nc2ccc(Cl)cc2)c1=O
Cannabinoid receptor 1 [1]
  Activity: < 30%
[2]
  Activity: < 50%

## O=c1c(NCCc2cccc(Cl)c2)c(Nc2ccc(Cl)cc2)c1=O
Cannabinoid receptor 1 [4]
  IC50: 214 nM
Cannabinoid receptor 1 [5]
  IC50: 148 nM
Cannabinoid receptor 1 [6]
  EC50: 692 nM
[7]
  t1/2: 15.8 min
[8]
  CLH: 87.8 µL/min/mg
[9]
  t1/2: 88.3 min
[10]
  CLH: 39.9 µL/min/mg
[11]
  solubility kinetic at 2 h: < 1 µg/mL
[12]
  Papp: 3.1 10^-6 cm/s
[13]
  Papp: 6.4 10^-6 cm/s
[14]
  PPB: > 99%
[15]
  PB: > 99%
[16]
  PPB: > 99%
[17]
  concentration at 5 min: 1240 ng/mL
[18]
  Drug excretion: Active
[19]
  t1/2: 30.6 min
[20]
  concentration at 0.25 h: 8.7 ng/mL
[21]
  concentration at 0.5 h: 11.7 ng/mL
[22]
  concentration at 1 h: 12.1 ng/mL
[23]
  concentration at 8 h: 4.6 ng/mL
[24]
  concentration at 0.25 h: 173 ng/mL
[25]
  concentration at 0.5 h: 59.5 ng/mL
[26]
  concentration at 1 h: 93.8 ng/mL
[27]
  concentration at 8 h: 54.8 ng/mL

## O=c1c(NCCc2ccccc2F)c(Nc2ccc(Cl)cc2)c1=O
Cannabinoid receptor 1 [3]
  IC50: 269 nM
Cannabinoid receptor 1 [1]
  Activity: < 30%
[2]
  Activity: < 50%
Cannabinoid receptor 1 [28]
  IC50: 6.61 µM
Cannabinoid receptor 1 [4]
  IC50: 5620 nM

## CC(=O)c1ccc(CCNc2c(Nc3ccc(Cl)cc3)c(=O)c2=O)cc1
Cannabinoid receptor 1 [3]
  IC50: > 10000 nM
Cannabinoid receptor 1 [1]
  Activity: < 30%
[2]
  Activity: < 50%

## O=c1c(NCCc2cccc(C(F)(F)F)c2)c(Nc2ccc(Cl)cc2)c1=O
Cannabinoid receptor 1 [3]
  IC50: 339 nM
Cannabinoid receptor 1 [1]
  Activity: < 30%
[2]
  Activity: < 50%

## O=c1c(NCCc2cccc(F)c2)c(Nc2ccc(Cl)cc2)c1=O
Cannabinoid receptor 1 [3]
  IC50: 282 nM
Cannabinoid receptor 1 [1]
  Activity: < 30%
[2]
  Activity: < 50%

## CCN(CC)c1ccc(CCNc2c(Nc3ccc(Cl)cc3)c(=O)c2=O)cc1
Cannabinoid receptor 1 [3]
  IC50: > 10000 nM
Cannabinoid receptor 1 [1]
  Activity: < 30%
[2]
  Activity: < 50%

## O=c1c(NCCc2ccc(F)cc2F)c(Nc2ccc(Cl)cc2)c1=O
Cannabinoid receptor 1 [3]
  IC50: 912 nM
Cannabinoid receptor 1 [1]
  Activity: < 30%
[2]
  Activity: < 50%

## O=c1c(NCCN2CCCCC2)c(Nc2ccc(Cl)cc2)c1=O
Cannabinoid receptor 1 [1]
  Activity: < 30%
[2]
  Activity: < 50%

## Cc1ccccc1CCNc1c(Nc2ccc(Cl)cc2)c(=O)c1=O
Cannabinoid receptor 1 [3]
  IC50: 1260 nM
Cannabinoid receptor 1 [1]
  Activity: < 30%
[2]
  Activity: < 50%

## O=c1c(NCCc2ccc(Br)cc2)c(Nc2ccc(Cl)cc2)c1=O
Cannabinoid receptor 1 [3]
  IC50: > 10000 nM
Cannabinoid receptor 1 [1]
  Activity: < 30%
[2]
  Activity: < 50%

## Cc1ccc(CCNc2c(Nc3ccc(Cl)cc3)c(=O)c2=O)cc1
Cannabinoid receptor 1 [3]
  IC50: 158 nM
Cannabinoid receptor 1 [1]
  Activity: < 30%
[2]
  Activity: < 50%
Cannabinoid receptor 1 [4]
  IC50: 646 nM

## O=c1c(NCCc2ccc(F)cc2)c(Nc2ccc(Cl)cc2)c1=O
Cannabinoid receptor 1 [1]
  Activity: < 30%
[2]
  Activity: < 50%

— ChEMBL document CHEMBL6109148, “Development of Squaramides as Allosteric Modulators of the CB1 Receptor: Synthesis, Computational Studies, Biological Characterization, and Effects against Cocaine-Induced Behavioral Sensitization and Reinstatement in Rats” (J Med Chem, 2025)
